# In PubChem BioAssay (NCI):
# “And” between values parts separate entries of the source, which are not always exact repeats. Identical values can stand only once.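 Five compound concentrations were applied to cells in 96-well plates for 48 hours; endpoints were derived by simple linear interpolation of the resulting dose-response curve. At the GI50, growth is halved. TGI denotes the concentration required for complete inhibition of growth.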
# How the values were obtained:
# Assay in all cases: NCI tumour cell line growth inhibition, 48 h
# PC-3 prostate = system: PC-3 prostate
# LOX IMVI melanoma = system: LOX IMVI melanoma
# NCI-H226 lung = system: NCI-H226 lung
# DMS 273 small cell lung = system: DMS 273 small cell lung
# A498 renal = system: A498 renal
# NCI-H460 lung = system: NCI-H460 lung
# NCI/ADR-RES ovarian = system: NCI/ADR-RES ovarian
# MDA-MB-231 breast = system: MDA-MB-231 breast
# SF-295 CNS = system: SF-295 CNS
# M14 melanoma = system: M14 melanoma
# CAKI-1 renal = system: CAKI-1 renal
# MOLT-4 leukemia = system: MOLT-4 leukemia
# HT29 colon = system: HT29 colon
# SK-MEL-5 melanoma = system: SK-MEL-5 melanoma
# KM12 colon = system: KM12 colon
# OVCAR-3 ovarian = system: OVCAR-3 ovarian
# DU-145 prostate = system: DU-145 prostate
# OVCAR-4 ovarian = system: OVCAR-4 ovarian
# HOP-18 NSCLC = system: HOP-18 NSCLC
# HS 578T breast = system: HS 578T breast
# HCC-2998 colon = system: HCC-2998 colon
# RXF 393 renal = system: RXF 393 renal
# UO-31 renal = system: UO-31 renal
# OVCAR-8 ovarian = system: OVCAR-8 ovarian
# M19-MEL melanoma = system: M19-MEL melanoma
# EKVX NSCLC = system: EKVX NSCLC
# SW-620 colon = system: SW-620 colon
# MDA-N = system: MDA-N
# SN12K1 renal = system: SN12K1 renal
# ACHN renal = system: ACHN renal
# U251 CNS = system: U251 CNS
# DLD-1 colon = system: DLD-1 colon
# HCT-116 colon = system: HCT-116 colon
# MDA-MB-435 = system: MDA-MB-435
# HL-60(TB) leukemia = system: HL-60(TB) leukemia
# SNB-19 CNS = system: SNB-19 CNS
# IGROV1 ovarian = system: IGROV1 ovarian
# UACC-62 melanoma = system: UACC-62 melanoma
# SNB-75 CNS = system: SNB-75 CNS
# OVCAR-5 ovarian = system: OVCAR-5 ovarian
# A549 NSCLC = system: A549 NSCLC
# TK-10 renal = system: TK-10 renal
# XF 498 CNS = system: XF 498 CNS
# SK-MEL-28 melanoma = system: SK-MEL-28 melanoma
# COLO 205 colon = system: COLO 205 colon
# MALME-3M melanoma = system: MALME-3M melanoma
# CCRF-CEM leukemia = system: CCRF-CEM leukemia
# P388 leukemia = system: P388 leukemia
# SK-OV-3 ovarian = system: SK-OV-3 ovarian
# RPMI-8226 leukemia = system: RPMI-8226 leukemia
# HCT-15 colon = system: HCT-15 colon
# KM20L2 colon = system: KM20L2 colon
# NCI-H522 lung = system: NCI-H522 lung
# K-562 leukemia = system: K-562 leukemia
structure (smiles),measurement,setting,value
C1CN1c1nc(N2CC2)nc(N2CC2)n1,GI50,PC-3 prostate,20.2 µM
same,TGI,PC-3 prostate,69.3 µM and > 71.2 µM
same,TGI,LOX IMVI melanoma,24.7 µM and 14.3 µM
same,GI50,NCI-H226 lung,10.8 µM
same,TGI,NCI-H226 lung,27.3 µM and 25.7 µM
same,TGI,DMS 273 small cell lung,20.5 µM
same,TGI,A498 renal,25.2 µM
same,TGI,NCI-H460 lung,17.6 µM
same,GI50,NCI/ADR-RES ovarian,3.48 µM
same,TGI,NCI/ADR-RES ovarian,38.6 µM and 12.8 µM
same,TGI,MDA-MB-231 breast,56.5 µM and 36.4 µM
same,GI50,SF-295 CNS,1.31 µM
same,TGI,SF-295 CNS,19.7 µM and 24.9 µM
same,GI50,M14 melanoma,3.86 µM
same,TGI,M14 melanoma,23.9 µM and 34.9 µM
same,GI50,CAKI-1 renal,1.87 µM
same,TGI,CAKI-1 renal,24.8 µM and 27.5 µM
same,TGI,MOLT-4 leukemia,15.3 µM
same,TGI,HT29 colon,64.8 µM and 35.4 µM
same,GI50,SK-MEL-5 melanoma,6.93 µM
same,TGI,SK-MEL-5 melanoma,19.6 µM and 14 µM
same,GI50,KM12 colon,13 µM
same,TGI,KM12 colon,42.3 µM and 35.9 µM
same,TGI,OVCAR-3 ovarian,41.7 µM and 25.8 µM
same,GI50,DU-145 prostate,0.825 µM
same,GI50,OVCAR-4 ovarian,13.8 µM
same,TGI,OVCAR-4 ovarian,36.5 µM and 20.3 µM
same,TGI,HOP-18 NSCLC,68.9 µM
same,GI50,HS 578T breast,23.4 µM
same,TGI,HS 578T breast,87.5 µM and 52.8 µM
same,GI50,HCC-2998 colon,10.4 µM
same,TGI,HCC-2998 colon,23.8 µM and 18.3 µM
same,GI50,RXF 393 renal,3.32 µM
same,TGI,RXF 393 renal,21.6 µM and 13.5 µM
same,GI50,UO-31 renal,1.28 µM
same,TGI,UO-31 renal,23.4 µM and 3.68 µM
same,GI50,OVCAR-8 ovarian,5.11 µM
same,TGI,OVCAR-8 ovarian,38.8 µM and 16.2 µM
same,TGI,M19-MEL melanoma,33 µM
same,GI50,EKVX NSCLC,22.2 µM
same,TGI,EKVX NSCLC,55.5 µM and 47.4 µM
same,GI50,SW-620 colon,7.84 µM
same,TGI,SW-620 colon,56.3 µM and > 54.9 µM
same,GI50,MDA-N,15 µM
same,TGI,MDA-N,42 µM and 33.3 µM
same,TGI,SN12K1 renal,26 µM
same,TGI,ACHN renal,20.5 µM
same,GI50,U251 CNS,6.6 µM
same,TGI,U251 CNS,27.5 µM and > 50.1 µM
same,TGI,DLD-1 colon,78.8 µM
same,TGI,HCT-116 colon,33.4 µM and 15.6 µM
same,GI50,MDA-MB-435,16.5 µM
same,TGI,MDA-MB-435,35.8 µM and 29.9 µM
same,GI50,HL-60(TB) leukemia,0.195 µM
same,TGI,HL-60(TB) leukemia,24.5 µM and > 100 µM
same,GI50,SNB-19 CNS,4.55 µM
same,TGI,SNB-19 CNS,58.2 µM and > 51.3 µM
same,GI50,IGROV1 ovarian,11.1 µM
same,TGI,IGROV1 ovarian,33.4 µM and 21.8 µM
same,GI50,UACC-62 melanoma,3.75 µM
same,TGI,UACC-62 melanoma,14.8 µM and 17 µM
same,GI50,SNB-75 CNS,8.99 µM
same,TGI,SNB-75 CNS,25.7 µM and 31.5 µM
same,GI50,OVCAR-5 ovarian,13.7 µM
same,TGI,OVCAR-5 ovarian,42 µM and 31.4 µM
same,GI50,A549 NSCLC,4.99 µM
same,TGI,A549 NSCLC,31 µM and 28.3 µM
same,GI50,TK-10 renal,4.36 µM
same,TGI,TK-10 renal,79.8 µM and 16.7 µM
same,TGI,XF 498 CNS,17.2 µM
same,TGI,SK-MEL-28 melanoma,40 µM
same,TGI,COLO 205 colon,32 µM and 41 µM
same,GI50,MALME-3M melanoma,13.6 µM
same,TGI,MALME-3M melanoma,28.2 µM and 22.5 µM
same,GI50,CCRF-CEM leukemia,0.195 µM
same,TGI,P388 leukemia,17.3 µM
same,GI50,SK-OV-3 ovarian,13.9 µM
same,TGI,SK-OV-3 ovarian,41.1 µM and 36.6 µM
same,GI50,RPMI-8226 leukemia,15.9 µM
same,TGI,RPMI-8226 leukemia,72.6 µM and 29.7 µM
same,GI50,HCT-15 colon,10.1 µM
same,TGI,HCT-15 colon,50.2 µM and 24.6 µM
same,TGI,KM20L2 colon,47.7 µM
same,TGI,NCI-H522 lung,21 µM and 12.2 µM
same,TGI,K-562 leukemia,77.9 µM
